Assays:
[1] = Stability assay under reductive conditions; format: physicochemical; conditions: PBS buffer with 1.0 mM L-glutathione, pH 7
[2] = Temperature and pH stability assay in phosphate buffers; format: physicochemical; conditions: 50 mM phosphate buffer; for half-life at 0.1 mg/mL: phosphate buffer
[3] = Stability assay in human serum; format: in vitro ADME; conditions: male, 37 °C

Q: With CC[C@H](C)[C@@H]1NC(=O)[C@H](Cc2ccc(O)cc2)NC(=O)[C@@H](N)CSSC[C@@H](C(=O)N2CCC[C@H]2C(=O)N[C@@H](CC(C)C)C(=O)NCC(N)=O)NC(=O)[C@H](CC(N)=O)NC(=O)[C@H](CCC(N)=O)NC1=O [OXT, oxytocin] as the compound, how does the half-life at 9.9 µM [1] read?
A: 480 min

Q: What about the half-life ([2]; pH 2.0, 40 °C) of the same compound?
A: 14 ± 0.9 days

Q: And the half-life ([2]; pH 4.5, 40 °C)?
A: 121 ± 6.2 days

Q: What about the half-life at 0.1 mg/mL ([2]; pH 2, half-life, pH 2.0, 55 °C) of the same compound?
A: 3.2 days

Q: What about the half-life at 0.1 mg/mL ([2]; pH 4.5, half-life, pH 4.5, 55 °C) of the same compound?
A: 18 days

Q: And the half-life at 0.1 mg/mL ([2]; pH 7, half-life, pH 7.0, 40 °C)?
A: 7.2 days

Q: And the half-life at 0.1 mg/mL ([2]; pH 7, half-life, pH 7.0, 55 °C)?
A: 2 days

Q: What about the half-life at 0.1 mg/mL ([2]; pH 9, half-life, pH 9.0, 40 °C) of the same compound?
A: 3.9 days

Q: And the half-life at 0.1 mg/mL ([2]; pH 9, half-life, pH 9.0, 55 °C)?
A: 0.9 days

Q: What about the half-life at 0.45 mM [3] of the same compound?
A: 1730 min

— PMC5355835 (Chemical Science, 2016)
